Assay results reported in US11807835B2, “Detergent compositions containing a stabilized enzyme by phosphonates” (ECOLAB USA INC., priority 2016, dated 2023).

What was measured:
Type in all cases: biochemical
lipase = assay: Lipase activity retention in detergent use solution (4000 ppm, 5 GPG water; p-nitrophenyl valerate, TRIS buffer pH 8.0); conditions: base formula, phosphonate at 0.1% elemental phosphorus, at 120º F. or at room temperature (as titled)
In short: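 Lipase stability was measured in a detergent use solution under conditions mimicking presoak or manual warewash, with stirring in a water bath. Aliquots were taken over time and flash-frozen. Thawed samples were diluted in TRIS buffer at pH 8.0 and assayed with p-nitrophenyl valerate as substrate on a plate reader. Activity is reported as % retained relative to the time=0 sample.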

amylase = assay: Amylase activity retention in detergent use solution (4000 ppm, 5 GPG water; ethylidene substrate EPS, HEPES buffer pH 8.0)
In short: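 Detergent use solution at 4000 ppm in 5 GPG water held at 120° F.; aliquots taken up to 4 h, flash-frozen, then assayed with p-nitrophenyl valerate in TRIS pH 8.0 (lipase) or EPS substrate in HEPES pH 8.0 (amylase). Retention given as % activity relative to t=0.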

[1] = system: enzyme (protease, amylase, lipase); assay: Overall effects of phosphonates on enzyme activity (Table 3); conditions: overall effect of the phosphonate on enzyme activity in the detergent use solution
In short: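 Protease, amylase and lipase activity in detergent use solutions with varied phosphonate levels, 4000 ppm in 5 GPG water at 120° F., sampled up to 4 h and frozen at −80° C. before assay. Activity given as % retention relative to t=0 (100%).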

O=C(O)CCC(CC(=O)O)(C(=O)O)P(=O)(O)O (stereo not shown) [PBTC, Phosphonebutane tricarboxylic acid]
Relative Lipase Enzyme Activity (lipase; time 90 min): 15.95%
Relative Lipase Enzyme Activity (lipase; time 120 min): 12.52%
Relative Lipase Enzyme Activity (lipase; time 150 min): 11.11%
Relative Lipase Enzyme Activity (lipase; time 180 min): 10.01%
Relative Lipase Enzyme Activity (lipase; time 210 min): 9.16%
Relative Lipase Enzyme Activity (lipase; time 240 min): 9.12%
Relative Amylase Enzyme Activity (amylase; All Ash formula, phosphonate 0.3 wt-%, use solution at 120° F., time 0 min): 98.88%
Relative Amylase Enzyme Activity (amylase; All Ash formula, phosphonate 0.3 wt-%, use solution at 120° F., time 5 min): 100.00%
Relative Amylase Enzyme Activity (amylase; All Ash formula, phosphonate 0.3 wt-%, use solution at 120° F., time 10 min): 94.76%
Relative Amylase Enzyme Activity (amylase; All Ash formula, phosphonate 0.3 wt-%, use solution at 120° F., time 20 min): 90.04%
Relative Amylase Enzyme Activity (amylase; All Ash formula, phosphonate 0.3 wt-%, use solution at 120° F., time 40 min): 63.67%
Relative Amylase Enzyme Activity (amylase; All Ash formula, phosphonate 0.3 wt-%, use solution at 120° F., time 60 min): 58.65%
Relative Amylase Enzyme Activity (amylase; All Ash formula, phosphonate 0.3 wt-%, use solution at 120° F., time 90 min): 54.03%
Relative Amylase Enzyme Activity (amylase; All Ash formula, phosphonate 0.3 wt-%, use solution at 120° F., time 120 min): 45.38%
Relative Amylase Enzyme Activity (amylase; All Ash formula, phosphonate 0.3 wt-%, use solution at 120° F., time 150 min): 44.40%
Relative Amylase Enzyme Activity (amylase; All Ash formula, phosphonate 0.3 wt-%, use solution at 120° F., time 180 min): 41.15%
Relative Amylase Enzyme Activity (amylase; All Ash formula, phosphonate 0.3 wt-%, use solution at 120° F., time 210 min): 41.56%
Relative Amylase Enzyme Activity (amylase; All Ash formula, phosphonate 0.3 wt-%, use solution at 120° F., time 240 min): 40.40%
Relative Amylase Enzyme Activity (amylase; base formula, phosphonate 0.3 wt-%, use solution at 120° F., time 0 min): 100.00%
Relative Amylase Enzyme Activity (amylase; base formula, phosphonate 0.3 wt-%, use solution at 120° F., time 5 min): 96.90%
Relative Amylase Enzyme Activity (amylase; base formula, phosphonate 0.3 wt-%, use solution at 120° F., time 10 min): 94.03%
Relative Amylase Enzyme Activity (amylase; base formula, phosphonate 0.3 wt-%, use solution at 120° F., time 20 min): 86.69%
Relative Amylase Enzyme Activity (amylase; base formula, phosphonate 0.3 wt-%, use solution at 120° F., time 40 min): 83.68%
Relative Amylase Enzyme Activity (amylase; base formula, phosphonate 0.3 wt-%, use solution at 120° F., time 60 min): 86.51%
Relative Amylase Enzyme Activity (amylase; base formula, phosphonate 0.3 wt-%, use solution at 120° F., time 90 min): 84.89%
Relative Amylase Enzyme Activity (amylase; base formula, phosphonate 0.3 wt-%, use solution at 120° F., time 120 min): 85.85%
Relative Amylase Enzyme Activity (amylase; base formula, phosphonate 0.3 wt-%, use solution at 120° F., time 150 min): 76.25%
Relative Amylase Enzyme Activity (amylase; base formula, phosphonate 0.3 wt-%, use solution at 120° F., time 180 min): 81.01%
Relative Amylase Enzyme Activity (amylase; base formula, phosphonate 0.3 wt-%, use solution at 120° F., time 210 min): 81.99%
Relative Amylase Enzyme Activity (amylase; base formula, phosphonate 0.3 wt-%, use solution at 120° F., time 240 min): 81.88%
Relative Amylase Enzyme Activity (amylase; base formula, phosphonate 0.6 wt-%, use solution at 120º F., time 0 min): 100.00%
Relative Amylase Enzyme Activity (amylase; base formula, phosphonate 0.6 wt-%, use solution at 120º F., time 5 min): 107.86%
Relative Amylase Enzyme Activity (amylase; base formula, phosphonate 0.6 wt-%, use solution at 120º F., time 10 min): 111.05%
Relative Amylase Enzyme Activity (amylase; base formula, phosphonate 0.6 wt-%, use solution at 120º F., time 20 min): 106.52%
Relative Amylase Enzyme Activity (amylase; base formula, phosphonate 0.6 wt-%, use solution at 120º F., time 40 min): 73.11%
Relative Amylase Enzyme Activity (amylase; base formula, phosphonate 0.6 wt-%, use solution at 120º F., time 60 min): 79.10%
Relative Amylase Enzyme Activity (amylase; base formula, phosphonate 0.6 wt-%, use solution at 120º F., time 90 min): 71.11%
Relative Amylase Enzyme Activity (amylase; base formula, phosphonate 0.6 wt-%, use solution at 120º F., time 120 min): 64.98%
Relative Amylase Enzyme Activity (amylase; base formula, phosphonate 0.6 wt-%, use solution at 120º F., time 150 min): 74.97%
Relative Amylase Enzyme Activity (amylase; base formula, phosphonate 0.6 wt-%, use solution at 120º F., time 180 min): 85.22%
Relative Amylase Enzyme Activity (amylase; base formula, phosphonate 0.6 wt-%, use solution at 120º F., time 210 min): 94.67%
Relative Amylase Enzyme Activity (amylase; base formula, phosphonate 0.6 wt-%, use solution at 120º F., time 240 min): 97.07%
Relative Amylase Enzyme Activity (amylase; base formula, phosphonate at 0.1% elemental phosphorus level, use solution at 120º F., time 0 min): 90.07%
Relative Amylase Enzyme Activity (amylase; base formula, phosphonate at 0.1% elemental phosphorus level, use solution at 120º F., time 5 min): 100.00%
Relative Amylase Enzyme Activity (amylase; base formula, phosphonate at 0.1% elemental phosphorus level, use solution at 120º F., time 10 min): 98.00%
Relative Amylase Enzyme Activity (amylase; base formula, phosphonate at 0.1% elemental phosphorus level, use solution at 120º F., time 20 min): 89.44%
Relative Amylase Enzyme Activity (amylase; base formula, phosphonate at 0.1% elemental phosphorus level, use solution at 120º F., time 40 min): 90.60%
Relative Amylase Enzyme Activity (amylase; base formula, phosphonate at 0.1% elemental phosphorus level, use solution at 120º F., time 60 min): 86.05%
Relative Amylase Enzyme Activity (amylase; base formula, phosphonate at 0.1% elemental phosphorus level, use solution at 120º F., time 90 min): 90.47%
Relative Amylase Enzyme Activity (amylase; base formula, phosphonate at 0.1% elemental phosphorus level, use solution at 120º F., time 120 min): 89.11%
Relative Amylase Enzyme Activity (amylase; base formula, phosphonate at 0.1% elemental phosphorus level, use solution at 120º F., time 150 min): 88.36%
Relative Amylase Enzyme Activity (amylase; base formula, phosphonate at 0.1% elemental phosphorus level, use solution at 120º F., time 180 min): 82.80%
Relative Amylase Enzyme Activity (amylase; base formula, phosphonate at 0.1% elemental phosphorus level, use solution at 120º F., time 210 min): 84.45%
Relative Amylase Enzyme Activity (amylase; base formula, phosphonate at 0.1% elemental phosphorus level, use solution at 120º F., time 240 min): 91.39%
Stability (effects on enzyme activity) [1]: No
